Results taken from publication PMC4880976, “Pharmacologic rationale for the NK1R antagonist, aprepitant as adjunctive therapy in HIV” (Journal of Translational Medicine, 2016).
Where no end group is shown, it is not given here.

Legend:
[1] = system: ATP-dependent K+ currents of mouse pancreatic B-cells; conditions: in the absence of albumin; Table 1, reference not given; read-out: concentration blocking currents half maximally; cited from earlier work
GABAA receptor = system: GABAA receptor; parameters: method as in PMID 23702798, PMID 25113527; conditions: cited from earlier work
serotonin reuptake = system: serotonin reuptake; parameters: method as in PMID 23702798, PMID 25113527; conditions: at 10 μM; cited from earlier work
dopamine reuptake = system: dopamine reuptake; parameters: method as in PMID 23702798, PMID 25113527; conditions: at 10 μM; cited from earlier work
HIV = conditions: Table 1, reference not given; cited from earlier work
5-HT2A receptor = target: 5-HT2A receptor; parameters: method as in PMID 23702798, PMID 25113527; conditions: partial agonist; cited from earlier work
5-HT2C receptor = system: 5-HT2C receptor; parameters: method as in PMID 23702798, PMID 25113527; conditions: cited from earlier work
[2] = system: vesicular monoamine transporter 2 (VMAT2); parameters: method as in PMID 23702798, PMID 25113527; conditions: at 10 μM; cited from earlier work
[3] = Table 1, literature values, no reference given; cited from earlier work
[4] = cited from earlier work
human PBMC = test: SP dependent cytokine and chemokine production by PBMC, multiplex assay; format: cell-based; conditions: SP 10 µM, 24 h
Experimental: (§1) For cytokine and PD-1 assessment experiments freshly isolated peripheral blood mononuclear cell (PBMC) purchased from the Human Immunology Core Facility of The University of Pennsylvania School of Medicine (Philadelphia, PA) were cultured in RPMI medium supplemented with 10 % FBS overnight. Some cultures were treated with SP (10 µM) aprepitant (10 µM) or DMSO (0.001 %, vehicle for aprepitant). Cytokine concentrations were measured in supernatants using multiplex assay 24 h after SP/aprepitant treatment (see below). For PD-1 expression SP and aprepitant were added at day 0 and PD-1 expression was monitored daily for up to 8 days using flow cytometry.
Concentrations of pro-inflammatory cytokines and chemokines in supernatants of human PBMC were measured using human Cytokine/Chemokine Magnetic Bead Panel—Premixed 30 Plex, HCYTMAG-60K-PX30 (Millipore, Billerica, MA, USA) as recommended by the manufacturers.
Fig. 5 SP dependent up regulation of cytokine and chemokine production by human PBMC* is inhibited by aprepitant. *Freshly isolated PBMC from normal donors were incubated for 24 h with SP and/or Aprepitant (10 µM each) as indicated. Control cultures were either left untreated of incubated with DMSO (vehicle for aprepitant). Pro-inflammatory markers were measured in supernatants using MILLIPORE Human Cytokine/Chemokine Magnetic Bead Panel.

[5] = system: CD163 cleavage in human monocytes; test: sCD163 release from human monocytes, ELISA; format: cell-based; conditions: SP, time- and dose-dependent, p < 0.001
Experimental: sCD163 was measured by ELISA (Trillium Diagnostics, Brewer, Maine, USA) according to manufacturer’s recommendations.
Fig. 7 SP induces cleavage of CD163 in monocytes. sCD163 was measured by ELISA in the supernatant of freshly isolated human monocytes treated with SP and aprepitant as indicated. a Time course of cells treated with varying doses of SP as indicated. *p < 0.001 control versus 5 and 10 μM of SP. b Cells were pre-incubated with aprepitant (10 μM) for 30 min and then treated with SP (5 μM) for 60 min. *p < 0.001 SP versus control, p = 0.004 SP versus SP + aprepitant. Results are presented as mean ± SD from three independent experiments

[6] = system: PD-1 expression on CD3+CD4+ cells; test: PD-1 expression on CD4+ T-cells in PBMC, flow cytometry; format: cell-based, human
Experimental: as §1
Fig. 6 Aprepitant blocks SP induced PD-1 expression on CD4+ T-cells. PBMC were treated for 7 days with SP and aprepitant as indicated. PD-1 expression was measured by flow cytometry on CD3+CD4+ cells and expressed as percentage of PD-1 positive cells. a Results from representative experiment are shown. First two columns show gaiting strategy. […] Median (spread): control 14.7 (11.1), SP treated 38.4 (60.6), SP + aprepitant treated 7.8 (6.0) TEXT PRINTED IN THE PICTURE: (a) SP: PD1+ 67.1 | (a) SP + aprepitant: PD1+ 9.53 DOUBTS OF THE COPYIST ABOUT THIS PICTURE: SP + aprepitant, PD1+ 9.53: the sign after PD1 looks like '+' or '−' because it touches the gate line / SP + aprepitant, 9.53: small print, so the digits 9, 5 and 3 are not fully certain / The rows 'no staining' (PD1+ 0.079) and 'control' (PD1+ 11.4) were left out because they are not substances

CCCCNC(=O)NS(=O)(=O)c1ccc(C)cc1 [Tolbutamide]
IC50 [1]: 4.1 µM

O=C1Nc2ccc(Cl)cc2[C@@](C#CC2CC2)(C(F)(F)F)O1 [Efavirenz]
action at GABAA receptor (GABAA receptor): positive allosteric modulator
serotonin reuptake inhibition (serotonin reuptake): 50%
dopamine reuptake inhibition (dopamine reuptake): 75%
Plasma concentrations that appear to suppress HIV replication (HIV): Plasma concentrations above 2 mg/L appear to suppress HIV replication
Ki (5-HT2A receptor): 2.2 µM
action at 5-HT2C receptor (5-HT2C receptor): ligand
VMAT2 inhibition [2]: 60%

NS(=O)(=O)c1cc(C(=O)O)c(NCc2ccco2)cc1Cl [Furosemide]
PB % [3]: Furosemide (91–99 %)

CN1C(=O)CN=C(c2ccccc2)c2cc(Cl)ccc21 [Diazepam]
PB % [3]: Diazepam+ (98.5 %)
target concentrations ([4]; Table 1 footnote, no reference given): < 1 µg/mL

O=C1NC(=O)C(c2ccccc2)(c2ccccc2)N1 [Phenytoin]
clinically effective serum trough concentration ([4]; in vivo): The clinically effective serum trough concentration is usually 40 to 80 µmol/L.

substance P (RPKPQQFFGLM; ends and bridges not checked; UniProt P20366 58-68, looked up) [SP, substance P, ligand of its preferring receptor NK1R]
production of G-CSF, IL-6, IL-8, TNFα and MIP-1α (human PBMC): upregulated
production of MCP-1 (human PBMC): increased production
release of sCD163 [5]: fast release
percentage of PD-1 positive CD4 cells, median (spread) ([6]; SP treated, 7 days, five experiments, control 14.7 (11.1)): 38.4 (60.6) %
PD-1 expression by CD4 T-cells ([6]; incubation of PBMC with SP, 6–8 days, p = 0.03): increased PD-1 expression

CCC[C@@H]1C[C@@H](C(=O)N[C@@H]([C@H]2O[C@H](SC)[C@H](O)[C@@H](O)[C@H]2O)[C@H](C)Cl)N(C)C1 [Clindamycin]
PB % [3]: Clindamycin (95 %)

CCCC(CCC)C(=O)O [Valproic Acid]
therapeutic range (total) ([4]; in vivo): The therapeutic range for valproic acid (total) is 50–125 µg/mL
